As a reminder, the EC50 is the concentration needed to bring the measured effect to its halfway point. In general, IC50 refers to the point on the concentration scale where inhibition reaches its midpoint. High values mean weaker potency, low ones greater potency.

SMILES strings stand for the structures. Like-named read-outs stand apart in the source and are kept apart here. Where only a bound is given, the exact number is not on record here.

Data on 15 molecules can be found in paper PMC11602115 (Journal of Medicinal Chemistry, 2017).

The target of one data set is rat IP (Rattus norvegicus, UniProt P43253). The data set is described as follows: HTRF cAMP assay, recombinant rat IP receptor. More on the design: expressed in transfected cells. It counts as cell-based. Particulars: for EC50: HTRF (cAMP) rat IP receptor assay, mean of at least three determinations; for Emax: read-out: rIP % IA. How it is done: (§1) The new compounds were tested for functional agonist activity in a standard (Cisbio) cAMP assay using recombinant IP or DP1 receptors stably expressed in CHO-K1 cells. Clonal cell lines were derived following standard protocols, but receptor expression levels were kept to a minimum to preclude receptor reserve effects.
(§2) For development of cAMP accumulation assays, recombinant IP or DP1 receptors were stably expressed in CHO-K1 cells and clonal cell lines derived following standard protocols. Receptor expression levels were minimized to preclude receptor reserve effects. HTRF cAMP assays were performed according to the manufacturer’s instructions (Cisbio, cAMP Dynamic 2 assay kit; no. 62AM4PEJ). IP receptor-expressing cells were harvested, resuspended in assay buffer (PBS containing 1 mM IBMX and 0.2% BSA) at a density of 200 000 cells per mL, and dispensed into 384-well assay plates (PerkinElmer Proxiplate no. 6008280) at 5 μL per well. Test compounds were solubilized and serially diluted in DMSO using 5-fold dilutions to generate a 10-point dose–response curve with a top concentration of 10 μM. The samples were then further diluted in PBS to achieve a 2× stock. Diluted compounds were then transferred to a triplicate set of assay plates (5 μL per well). After a 1 h incubation at room temperature, 5 μL of cAMP-D2 reagent diluted in lysis buffer was added to each well followed by 5 μL of cryptate reagent. Plates were then incubated at room temperature for 1 h prior to reading. Time-resolved fluorescence measurements were collected on PerkinElmer Envision or BMG Pherastar microplate readers.
A general note: Time-resolved FRET reads energy transfer from a long-lived donor to a nearby acceptor.

A further data set deals with human platelet. The data set is described as follows: Inhibition of ADP-induced human platelet aggregation. It counts as cell-based. Particulars: aggregation induced by 2.5 μM ADP, mean of at least two determinations. As to the method:
Such aggregated and activated platelets produce vasoactive substances such as thromboxane and serotonin that may cause harmful vasoconstriction and vascular remodeling.[13] […] This secondary assay was carried out as previously described,[14] with aggregation induced by 2.5 μM ADP in the presence or absence of IP receptor agonists.

The target in another data set is T1, human DP1 receptor (Homo sapiens, UniProt Q13258).
T1 construct: expressed in transfected cells
T1 sequence (Q13258 1-359): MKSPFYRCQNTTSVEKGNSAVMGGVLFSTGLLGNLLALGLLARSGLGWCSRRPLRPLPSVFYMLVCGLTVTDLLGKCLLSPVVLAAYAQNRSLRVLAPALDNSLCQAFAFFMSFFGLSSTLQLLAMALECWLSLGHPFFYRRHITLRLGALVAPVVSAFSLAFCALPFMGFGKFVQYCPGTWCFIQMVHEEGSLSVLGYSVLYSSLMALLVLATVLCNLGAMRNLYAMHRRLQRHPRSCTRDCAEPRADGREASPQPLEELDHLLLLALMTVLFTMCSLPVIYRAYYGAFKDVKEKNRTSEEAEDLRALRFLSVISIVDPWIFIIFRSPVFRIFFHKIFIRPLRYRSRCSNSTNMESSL
The data set is described as follows: HTRF cAMP assay, recombinant human DP1 receptor in CHO-K1 cells. It counts as cell-based. Particulars: for Emax: CHO-K1, intrinsic activity relative to 1 μM PGD2, read-out: hDP1 % IA; for EC50: HTRF (cAMP) human DP1 receptor assay, mean of at least three determinations, read-out: EC50 hDP1. How it is done: as §1, §2

In the next data set the target is IP (Homo sapiens, UniProt P43119). Put plainly: HTRF cAMP assay, recombinant human IP receptor stably expressed in CHO-K1 cells. It counts as cell-based. More on the design: expressed in transfected cells. As to the method:
as §1, §2

Data set [1] can be described thus: Stability in rat microsome preparations. Particulars: incubation at 37 °C, rat microsomes; read-out: rat MS, T1/2. It counts as in vitro ADME. From the text:
(§3) Table 1 Screening Data for Selected Analogues ^a | column: human and rat MS, T1/2 (min) ^g

Data set [2] can be described thus: Stability in human microsome preparations. Particulars: incubation at 37 °C, human microsomes; read-out: human MS, T1/2. It counts as in vitro ADME.
From the text: as §3

Where [3] appears, read: HTRF (cAMP) human IP receptor assay; mean of at least three determinations.

Chain of IP (P43119 whole entry): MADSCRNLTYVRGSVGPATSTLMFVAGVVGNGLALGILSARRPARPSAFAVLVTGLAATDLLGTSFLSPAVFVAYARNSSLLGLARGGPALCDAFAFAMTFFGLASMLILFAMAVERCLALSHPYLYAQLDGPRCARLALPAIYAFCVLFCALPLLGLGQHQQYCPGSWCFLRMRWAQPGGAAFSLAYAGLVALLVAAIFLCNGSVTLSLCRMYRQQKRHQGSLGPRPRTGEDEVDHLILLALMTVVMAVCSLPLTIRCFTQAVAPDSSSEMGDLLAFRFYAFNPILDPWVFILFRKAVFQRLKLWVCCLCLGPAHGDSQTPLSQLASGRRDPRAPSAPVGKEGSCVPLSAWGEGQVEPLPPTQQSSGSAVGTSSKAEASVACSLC
Chain of rat IP (P43253 whole entry): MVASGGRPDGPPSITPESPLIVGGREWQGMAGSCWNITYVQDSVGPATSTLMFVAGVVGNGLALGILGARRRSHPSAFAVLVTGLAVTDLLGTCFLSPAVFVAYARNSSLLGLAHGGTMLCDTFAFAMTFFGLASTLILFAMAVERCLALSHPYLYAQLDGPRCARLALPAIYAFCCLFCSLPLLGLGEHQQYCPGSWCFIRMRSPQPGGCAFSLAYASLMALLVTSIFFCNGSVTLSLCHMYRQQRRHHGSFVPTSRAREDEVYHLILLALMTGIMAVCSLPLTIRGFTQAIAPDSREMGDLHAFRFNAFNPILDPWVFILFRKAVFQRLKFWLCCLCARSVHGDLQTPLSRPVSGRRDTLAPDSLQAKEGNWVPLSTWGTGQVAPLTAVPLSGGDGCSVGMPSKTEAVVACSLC

In the case of `O=C(O)COC[C@H]1CC[C@@H](COC(=O)N(c2ccccc2)c2ccccc2)CC1` [5b, 2-(((1s,4s)-4-((Diphenylcarbamoyloxy)methyl)cyclohexyl)methoxy)acetic Acid], the EC50 on rat IP came out at 472 nM; on human DP1 receptor, 1710 nM; on IP (setting [3]) it was 54 nM. Further, the figures for the Emax on rat IP, at human DP1 receptor and at IP (CHO-K1; read-out: hIP % IA) were 94%, 68% and 81%, respectively. In the data set with human platelet, the IC50 was 54 nM.
In the case of `O=C(O)COC[C@H]1CC[C@@H](COC(=O)N(c2ccccc2)c2ccc(Cl)cc2)CC1` [5d, 2-(((1s,4s)-4-(((4-Chlorophenyl)(phenyl)carbamoyloxy)methyl)cyclohexyl)methoxy)acetic Acid], the EC50 at rat IP worked out at 560 nM; at human DP1 receptor, 980 nM. The Emax at rat IP came out at 88%; on human DP1 receptor, 60%; on IP (CHO-K1, read-out: hIP % IA), 80%.
Turning to `COc1ccc(N(C(=O)OC[C@H]2CC[C@@H](COCC(=O)O)CC2)c2ccccc2)cc1` [5f, 2-(((1s,4s)-4-(((4-Methoxyphenyl)(phenyl)carbamoyloxy)methyl)cyclohexyl)methoxy)acetic Acid], the EC50 on rat IP was more than 10000 nM; on IP (setting [3]), 1630 nM. Also, the Emax at IP (CHO-K1; read-out: hIP % IA) was 16%.
`O=C(O)COC[C@H]1CC[C@@H](COC(=O)N(c2ccccc2)c2cccc(F)c2)CC1` [5h, 2-(((1s,4s)-4-(((3-Fluorophenyl)(phenyl)carbamoyloxy)methyl)cyclohexyl)methoxy)acetic Acid]: the EC50 was found to be 561 nM on rat IP, 3870 nM on human DP1 receptor and 62 nM at IP (setting [3]). For the same molecule, the Emax is 88% on rat IP, 61% at human DP1 receptor and 79% at IP (CHO-K1; read-out: hIP % IA). Moreover, in the data set on human platelet, half-maximal inhibition (IC50) was put at 93 nM.
`O=C(O)COC[C@H]1CC[C@H](COC(=O)N(c2ccccc2)c2cccc(Cl)c2)CC1` [5i, 2-(((1r,4r)-4-(((3-Chlorophenyl)(phenyl)carbamoyloxy)methyl)cyclohexyl)methoxy)acetic Acid]: the EC50 amounted to 272 nM at rat IP and 5070 nM at human DP1 receptor. The Emax was 88% at rat IP, 30% on human DP1 receptor and 80% on IP (CHO-K1; read-out: hIP % IA). The half-life in data set [1] and in data set [2] was more than 1 h throughout.
Take `Cc1ccc(N(C(=O)OC[C@H]2CC[C@H](COCC(=O)O)CC2)c2ccccc2)cc1` [5k, 2-(((1r,4r)-4-((Phenyl(p-tolyl)carbamoyloxy)methyl)cyclohexyl)methoxy)acetic Acid]: the half-maximal effective concentration (EC50) at rat IP worked out at 174 nM; at human DP1 receptor, 320 nM; on IP (setting [3]) it was 3.9 nM. In addition, the Emax worked out at 99% at rat IP, 53% on human DP1 receptor and 81% at IP (CHO-K1; read-out: hIP % IA). In the data set on human platelet, the IC50 is 39 nM.
Consider `O=C(O)COC[C@H]1CC[C@H](COC(=O)N(c2ccccc2)c2ccc(F)c(Cl)c2)CC1` [5n, 2-(((1r,4r)-4-(((3-Chloro-4-fluorophenyl)(phenyl)carbamoyloxy)methyl)cyclohexyl)methoxy)acetic Acid], for which the EC50 at rat IP is 1330 nM; at human DP1 receptor, more than 10000 nM; on IP (setting [3]), 38 nM. The Emax at rat IP worked out at 102%; at IP (CHO-K1; read-out: hIP % IA) it was 79%. Further, the half-life in data set [1] and in data set [2] was more than 1 h in each case. In addition, in the data set with human platelet, the IC50 was determined as 142 nM.
`COc1ccc(N(C(=O)OC[C@H]2CC[C@H](COCC(=O)O)CC2)c2cccc(F)c2)cc1` [5p, 2-(((1r,4r)-4-(((3-Fluorophenyl)(4-methoxyphenyl)carbamoyloxy)methyl)cyclohexyl)methoxy)acetic Acid]: the EC50 on rat IP was found to be 1570 nM; at human DP1 receptor it was 1030 nM; on IP (setting [3]), 5.2 nM. In addition, the results for the Emax at rat IP, at human DP1 receptor and at IP (CHO-K1; read-out: hIP % IA) were 60%, 65% and 70%, respectively. Also, it took 43 nM to reach half-maximal inhibition with human platelet (IC50).
`O=C(O)COC[C@H]1CC[C@H](COC(=O)N(c2ccc(Cl)cc2)c2cccc(F)c2)CC1` [5q, 2-(((1r,4r)-4-(((4-Chlorophenyl)(3-fluorophenyl)carbamoyloxy)methyl)cyclohexyl)methoxy)acetic Acid]: the EC50 on rat IP worked out at 3190 nM; at human DP1 receptor, 1140 nM; on IP (setting [3]), 18.5 nM. Also, the results for the Emax on rat IP, on human DP1 receptor and on IP (CHO-K1; read-out: hIP % IA) were 44%, 35% and 70%, respectively. The half-life in data set [1] and in data set [2] was more than 1 h throughout.
For the molecule `O=C(O)COC[C@H]1CC[C@H](COC(=O)N(c2ccc(F)cc2)c2ccc(F)cc2)CC1` [5r, 2-(((1r,4r)-4-((Bis(4-fluorophenyl)carbamoyloxy)methyl)cyclohexyl)methoxy)acetic Acid], the results for the EC50 at rat IP, at human DP1 receptor and on IP (setting [3]) were more than 10000 nM, 860 nM and 41 nM, respectively. Also, the values for the Emax at human DP1 receptor and on IP (CHO-K1; read-out: hIP % IA) were 45% and 65%, respectively.
For the molecule `O=C(O)COC[C@H]1CC[C@H](COC(=O)N(c2ccc(F)cc2)c2cccc(F)c2)CC1` [5s, 2-(((1r,4r)-4-(((4-Fluorophenyl)(3-fluorophenyl)carbamoyloxy)methyl)cyclohexyl)methoxy)acetic Acid], the EC50 at rat IP was found to be 1630 nM; on human DP1 receptor, 808 nM; at IP (setting [3]), 7.8 nM. For the same molecule, the values for the Emax at rat IP, on human DP1 receptor and at IP (CHO-K1; read-out: hIP % IA) were 54%, 57% and 76%, respectively. The half-life in data set [1] and in data set [2] was more than 1 h each time. This molecule also had an IC50 in the data set with human platelet of 30 nM.
Consider `O=C(O)COC[C@H]1CC[C@H](COC(=O)N(c2cccc(F)c2)c2ccc(Cl)c(F)c2)CC1` [5t, 2-(((1r,4r)-4-(((4-Chloro-3-fluorophenyl)(3-fluorophenyl)carbamoyloxy)methyl)cyclohexyl)methoxy)acetic Acid], for which the concentration for a half-maximal effect (EC50) is 2720 nM at rat IP, more than 10000 nM at human DP1 receptor and 23 nM on IP (setting [3]). Moreover, the Emax was 56% at rat IP and 75% on IP (CHO-K1; read-out: hIP % IA). For the same molecule, the half-life in data set [1] and in data set [2] was more than 1 h in each case.
Regarding `O=C(O)COC[C@H]1CC[C@H](COC(=O)N(c2ccc(O)cc2)c2ccc(Cl)cc2)CC1` [M2], the Emax on IP (CHO-K1; read-out: hIP % IA) worked out at 93%. In addition, the EC50 at IP (setting [3]) was determined as 25 nM.
Taken in the same sequence, the figures for `O=C(COC[C@H]1CC[C@H](COC(=O)N(c2ccc(O)cc2)c2ccc(Cl)cc2)CC1)NCCS(=O)(=O)O` [M3] were 78% and 1050 nM.
With `CC(C)N(CCCCOCC(=O)NS(C)(=O)=O)c1cnc(-c2ccccc2)c(-c2ccccc2)n1` [compound 1, selexipag, reference compound], the Emax was 100% at rat IP, 48% at human DP1 receptor and 98% at IP (CHO-K1; read-out: hIP % IA). Moreover, the half-life in data set [1] and in data set [2] was more than 1 h throughout. The IC50 in the data set on human platelet turned out to be 62 nM.
